Experimental data reported in patent US9737563B2, “Magnesium compositions and uses thereof for neurological disorders” (Neurocentria, Inc., priority 2007, dated 2017).
Where two headings read alike, the source gives them in different places.

Experiments:
[1] = system: AD mice; assay: Morris water maze test, comparison with anti-AD drugs; format: in vivo; settings: AD mice aged 13 months
Experimental: Two known anti-AD drugs named […] memantine were administered separately to the mice. For these experiments, mice were tested for effects on memory and learning using the Morris water maze test, essentially as described in the previous example.

[2] = Magnesium absorption rate in rats (metabolic cages, urine and feces magnesium by ICP-AES); settings: Example 5, gluconate in skim milk or 5 weight percent lactose water, chloride in water
Experimental: Fifty 3-month old, male Sprague Dawley (SD) rats were divided into five groups of ten rats. Rats of this age and older are considered adult. Each of the rats was placed in a separate metabolic cage equipped with urine- and feces-collecting wells. All of the rats were maintained in a temperature-controlled room (22° C. to 25° C.) with a dark period from 08:00 pm to 08:00 am daily. From day 1 through day 3, each rat was fed daily 15 g of magnesium-free food and de-ionized water. […] The medium was skim milk for Composition 1 and Group 1, milk prepared from powdered milk, by diluting the powdered milk with water to obtain a composition like that of skim milk, for Composition 2 and Group 2, 1% milk cream in water for Composition 3 and Group 3, water comprising 5 weight percent lactose for Composition 4 and Group 4, and water for the Control Composition and Control Group. […] From day 11 through day 12, each rat was fed daily 15 g of magnesium-free food and de-ionized water.
From day 4 through day 10, urine from each rat was collected daily. The collected urine from each rat was then pooled together and the total volume of the pooled urine from each rat was recorded. The pooled urine from each rat, in an amount of […], was analyzed for magnesium content using an inductively coupled plasma-atomic emission spectrometer (ICP-AES). From day 5 to day 11, feces from each rat were collected daily. The collected feces from each rat were pooled together and the pooled feces were weighed and homogenized. The pooled feces from each rat, in an amount of 0.5 g, were analyzed for magnesium content using an ICP-AES.
A formula was used to calculate a magnesium absorption rate for each rat. The formula used was Y=AX−B, wherein X was the average total daily magnesium intake, Y was the average net daily amount of magnesium absorbed, as calculated by X minus the average daily amount of magnesium excreted from feces, B was the average daily amount of magnesium excreted from feces when the magnesium intake was zero, and the slope A represented the magnesium absorption rate. Data points (X, Y) associated with each rat in each group often rats, with the exception of the best points and the worst points, were plotted. The value of A, the magnesium absorption rate, associated with each of Groups 1-4, and thus with each of the Compositions 1-4, was then obtained using linear regression. The value of A, the magnesium absorption rate, associated with the Control Group, and thus with the Control Composition, was also obtained using linear regression, and relabeled as A0. […]

[3] = system: aging rats (12-14 months old); settings: for novel object exploration preference: single training
Experimental: In this example, the effect of magnesium supplementation on recognition memory was tested. Three groups of rats were used in these experiments: 1) young rats (three months old); aging rats (12-14 months old), and; 3) magnesium-treated aging rats (12-14 months old, diet supplemented with 6 mg/kg MgCl2 from 8 months of age). We used experimentally naive, female, Sprague-Dawley young […], aging (12-14 month old) and […] rats (Charles River) at the beginning of the behavior experiments. They were housed two per cage with continuous access to food and water under a 12:12 light-dark cycle, with light onset at 8:00 a.m. […] All experiments involving animals were approved by the Massachusetts Institute of Technology's and Tsinghua University Committees on Animal Care.
The three groups of rats were tested for recognition memory using an object recognition test with a single exposure to the object during training. The task is based on the natural tendency of rodents to explore new objects and tests the animals' memory capacity for distinguishing novel versus familiar objects.
Briefly, the rats were first individually habituated to the personnel and then to open-field arena during 2 weeks. The rats were then allowed to explore two identical objects placed into the arena at fixed locations until they had accumulated 30 s of total inspection time (where this is defined as active exploration, sniffing or touching the object with the nose and/or forepaws) or for a maximum of 20 min. The rat was returned to the arena for the retention test and allowed to explore for another 30 sec. The retention intervals were 10 min and 24 hours. Objects were cleaned thoroughly between trials with 20% ethanol solution to ensure the absence of olfactory cues. The particular objects for a given trial were randomly determined, but each object was used for only one trial per rat. Memory of the familiar object is associated with increased exploration of the new object and an exploration index (% correct) is calculated as new object inspection time/30. […]

[4] = system: aging rats
Experimental: Three groups of animals (young, aging, and magnesium-treated aging rats) were used. […] Spatial working memory was assessed using a T-maze non-matching-to-place task. […] Spatial working memory was first assessed on an elevated T-maze. The maze was located 1 m above the floor in a well lit laboratory that contained various prominent distal extra-maze cues. The rats were handled and habituated to the maze for 10 days, and to Froot Loop® cereal over several days before the test. Each trial consisted of a sample run and a choice run, with delay intervals of 15 s during the training and the pattern completion tasks. On the sample run, the rats were forced either left or right by the presence of the block, according to a pseudorandom sequence (with equal numbers of left and right turns per session, and with no more than two consecutive turns in the same direction). A cereal reward was available in the food well at the end of the arm. The block was then removed, and the rat was allowed a free choice of either arm. The animal was rewarded for choosing the previously unvisited arm. Rats were run one trial at a time with an inter-trial interval of 10 min. Each daily session consisted of 6 trials.
The rats were tested for 10 consecutive days on a rewarded forced-choice alternation task. The percentage of correct choices (alternations) was recorded for each daily session. […] Then, spatial working memory was tested by a gradual increase of the delay between the sample and the choice trials (FIG. 10, right panel).

[5] = system: diabetic patients; settings: nearly 1 g of magnesium daily for 1 month; cited from earlier work
[6] = system: young (9-month old) and aged (25-month old) rats; settings: food containing 2% for 8 days, cited from earlier work
[7] = relatively high magnesium dosage
[8] = relatively low magnesium dosage

## COc1cc2c(cc1OC)C(=O)C(CC1CCN(Cc3ccccc3)CC1)C2 (stereo not drawn) [aricept]
[1]
  reducing the effects of AD on learning capacity: both being better at reducing the effects of AD on learning capacity than aricept

## [Cl-].[Cl-].[Mg+2] [magnesium chloride]
[2]; [7]
  magnesium absorption rate: less desirable
[2]; [8]
  magnesium absorption rate: suitable, but lower
[3]; 10 minute retention interval, aging rats, 6 mg/kg from 8 months of age
  novel object exploration preference: preferentially explored the novel object to the same extent as young rats
[3]; 24 hours retention interval
  novel object exploration preference: lose there ability to distinguish novel versus familiar objects
[3]; two training sessions separated by 10 minutes, 24-hour retention interval
  novel object preference: retained a high level of preference
[4]; 2 and 5 min delays, p<0.05
  spatial working memory with increased delay: significantly enhanced the performance of the aging rats at 2 and 5 min delays
[4]; 15 sec delay, versus untreated aging rats, p<0.05
  percentage of correct choices during training: performed significantly better from their first trials
[4]; after 8 days of training, all three groups
  asymptotic choice accuracy level: ~94%

## [O]=[Mg] [magnesium oxide]
[5]
  metabolic control: only minor improvement in metabolic control
[6]
  side-effect: diarrhea and weight loss
[6]; gain transient
  cognitive function: some sign of improvement of cognitive function

## CC12CC3CC(C)(C1)CC(N)(C3)C2 [memantine]
[1]
  reducing the effects of AD on learning capacity: better at reducing the effects of AD on learning capacity than aricept

## magnesium gluconate
[2]; [7]
  magnesium absorption rate: suitably close to those associated with the lower dosage compositions
[2]; [8]
  magnesium absorption rate: suitable magnesium absorption rates
